Experimental data from patent US11352604B2, “Method of making cardiomyocytes from human pluripotent cells” (Wisconsin Alumni Research Foundation, priority 2016, dated 2022).

How the values were obtained:
Assay type in all cases: cell-based, human
hPSC-CMs [1] = test: Immunofluorescence cell size (area of cTnT staining); settings: day 30, pI:C-treated vs untreated progenitors
Method: For internal antigens, cells were rinsed of media two times in PBS, fixed for 10 minutes in 4% paraformaldehyde at RT, rinsed three times again in PBS, then blocked for 1 hour at room temperature (RT) in Licor blocking buffer containing 0.2% Triton x-100 (Sigma). Blocking solution was aspirated and antibodies added overnight at 4° C. in fresh blocking/permeabilization solution. Antibodies used were mouse cardiac troponin T (Thermo Fisher Scientific, 1:200), rabbit WT1 (Abcam 1:200), mouse smooth muscle myosin heavy chain (Abcam, 1:200), goat Jag1 c-terminal domain (1:200 Abcam), MMP1 (Abcam, 1:200), mouse cardiac actin (Sigma, 1:200), rabbit SLC25A4 (Proteintech, 1:100), rabbit DBT (Proteintech, 1:100), rabbit ATP5F1 (Proteintech, 1:100), rabbit Irx4 (Abcam, 1:200), goat nkx2.5 (Santa Cruz, 1:50), mouse connexin 40 (Thermo Fisher Scientific, 1:200), and fibroblast-specific protein (Abcam, 1:100). After primary and secondary antibodies, cells were rinsed two times in PBS with 0.2% triton x-100. Donkey secondaries conjugated to Alexa Fluor dyes were used at 1:1000 and incubated at RT for 1 h. DAPI or Hoechst was used to visualize nuclei. Cells were imaged either on an EVOS system in wells (Thermo Fisher Scientific) or a Leica confocal microscope in cover glass or ibidi 8-well microslides. Image J was used to quantify cell area by outer boundaries of cTnT staining.

cTnT isoforms = test: Top-down mass spectrometry of cTnT isoforms (adult to fetal AUC ratio)
Method: Freshly isolated CMs from the H9-cTnT-GFP (FIG. 1) or 19-9-11 (FIG. 2) hPSC cell lines were washed with Ca^2+-free DPBS and centrifuged at 1,100 g for 5 minutes (min) and the wash solvent was removed. The cells were first homogenized in 50 μl HEPES solution (25 mM HEPES, pH 7.4, 2.5 mM EDTA, 100 mM NaF, 1 mM DTT, 10 mM L-methionine, 1 mM PMSF, 1 mM Na3VO4, protease inhibitor (Abcam) and phosphatase inhibitors). The homogenates were centrifuged at 17,000 g for 20 min and the HEPES extract containing predominately cytosolic proteins was collected. The remaining pellets were homogenized in 40 μl trifluoroacetic acid (TFA) solution (1% TFA, 5 mM tris(2-carboxyethyl)phosphine, 5 mM L-methionine) and centrifuged at 17,000 g for 20 min. The TFA extract containing predominantly the sarcomeric proteins was collected. Bradford protein assays were performed to determine the protein concentration. The sarcomeric protein-enriched extracts were diluted to 100 ng/μl for Liquid chromatography (LC)-MS analysis.
500 ng of each sarcomeric protein-enriched extract was injected to a home-packed reverse phase chromatography (RPC) column (PLRP-S, 10 μm particle size, 1000 A pore size, 500 μm inner diameter, 25 cm long), and the proteins were separated with a gradient of 5-95% mobile phase B (0.1% formic acid in 50:50 acetonitrile:ethanol) (mobile phase A: 0.1% formic acid in H2O) at a constant flowrate of 12 μl/min. The eluting proteins were analyzed by a high-resolution quadrupole-time of flight (q-TOF) mass spectrometer (Impact II, Bruker Daltonics) via electrospray ionization. The mass spectra were collected at a scan rate of 0.5 Hz for all samples being analyzed. Analyses of top-down mass spectra were performed using the vender-specific software DataAnalysis 3.2 (Bruker Daltonics).
Quantification of the sarcomeric protein isoforms was performed as previously described. […] The area under curve (AUC) of the EIC of a specific protein isoform represents the abundance of the selected protein isoform. […] Relative quantification of protein isoform expression was measured by the ratio of the AUCs.

hPSC-CMs [2] = test: Optical action potential measurement (RH237)
Method: After hPSC-CM dissociation, day 30 to 60 lactate-purified hPSC-CMs from the 19-9-11 cell line were plated as 80 μL drops on areas of cover glass previously coated in drops of Synthemax® working solution of 80 μL (Corning) in the K20/2 dissociation and replating technique described above. After at least two days in K2 medium, the fast-equilibrating voltage-sensitive dye RH237 at 1 μM was added and live cells imaged in the cover glass in a Leica confocal microscope. Video files of individual cells were taken and filtered with the 50th FIR filter at a cutoff frequency of 128 Hz. The resulting action potentials were analyzed for rise time and voltage velocity in MATLAB. Individual cells were considered as replicates for statistical purposes and came from 4 cell preparations.

[3] = system: day 5 cardiac progenitors; test: Methylcellulose colony-forming assay; settings: 1% methylcellulose, four days, size >35 μm
Method: Day-5 cardiac progenitors from the 19-9-11 cell line were dissociated as above, but then passed 10 times through a syringe with 18 gauge needle and filtered twice through a 45 μm flow cytometry cell strainer. The cells were then counted and 100,000 cells were then mixed with 2 mL of K20 medium plus 10 μM Y-27632 ROCK-inhibitor (Tocris) containing 1% ES-Cult methylcellulose (Stemcell Technologies) and grown in one 6-well of a corning Ultra Low Attachment plate. ImageJ was used to measure colony diameter four days later and single cells observed the first day and after had diameters less than 35 μm.

hPSC-CMs [4] = test: Cardiomyocyte yield from dissociated and replated progenitors; settings: primed vs untreated
Method: For dissociation of day 5 cells (for destructive analyses or live cell replating experiments), progenitors were dissociated with Versene (Thermo Fisher Scientific) for 10 minutes at 37° C., pipetted up and down 40 times, and then neutralized 1:1 v/v versene solution with “K20” medium (DMEM/F12 with 1×NEAA, 1× Glutamine, 0.1 mM (3-mercaptoethanol, and 20% Knockout Serum Replacer by volume, all Thermo Fisher Scientific). For destructive analyses, pellets were made by centrifugation at 1.1×1000 g for 5 minutes, aspiration of medium supernatant, snap-freezing in liquid nitrogen, and kept at −80° C. for until pellet lysis for DNA, protein, or RNA isolation.
For replating of progenitors and microtissue formation, after neutralization and cell counting, 0.8 million day-5 progenitors per well were spun down at 100×g as above and resuspended and plated in 1 mL K20 with 10 μM Y-27632 ROCK-inhibitor (Tocris) into Synthemax® II-SC coated 12 well plates (Corning). Media was then changed daily in 2 mL of “K2” (same formulation as K20 above, but with just 2% Knockout Serum Replacer), and changed daily. Differentiating hPSC-CMs from replated progenitors in this protocol beat by day 8 to 12.

polyinosinic-polycytidylic acid [pI:C]
hPSC-CM cell size (hPSC-CMs [1]): twice as large
ratio of adult to fetal cTnT isoforms (cTnT isoforms; day 30 cardiomyocytes): increased the ratio of adult to fetal isoforms
adult to fetal cTnT isoform ratio and relative difference treated vs untreated (cTnT isoforms; prolonged culture to day 122): increased dramatically
optical upstroke velocity (rise time) (hPSC-CMs [2]; day 30 hPSC-CMs from pI:C-treated vs untreated progenitors): significantly faster
APD80 (hPSC-CMs [2]; spontaneous action potentials): decrease
colony formation [3]: abundant multi-cellular colonies
increase in yield of cardiomyocytes (hPSC-CMs [4]; replated at high reseeding density): 4 fold
increase in yield of cardiomyocytes (hPSC-CMs [4]; replated at lower density): 6 fold
